For 4 compounds, Ki results are on record in patent US8026240B2, “Octahydro-pyrrolo[3,4-b]pyrrole N-oxides” (Abbott Laboratories, priority 2007, dated 2011).

pKi: −log10 of the molar value.

The test has as its target T1, rat histamine-3 receptor (Rattus norvegicus, UniProt Q9QYN8).
T1 construct: expressed in transfected cells; host or cells: C6 or HEK293 cells
In words: histamine-3 receptor competition binding with [H3]-N-α-methylhistamine. As to the method: To determine the effectiveness of representative compounds of this invention as histamine-3 receptor ligands, the following tests were conducted according to previously described methods (see Arrang et al, “Histamine H3 Receptor Binding Sites in Rat Brain Membranes:Modulations by Guanine Nucleotides and Divalent Cations”, European Journal of Pharmacology, Vol. 188, pp. 219-227 (1990); Tedford et al., “Pharmacological Characterization of GT-2016, A Non-Thiourea-Containing Histamine H3 Receptor Antagonist: In Vitro and In Vivo Studies”, The Journal of Pharmacology and Experimental Therapeutics, Vol. 275, pp. 598-604 (1995); Leurs et al., “Histamine Homologues Discriminating Between Two Functional H3-Receptor Assays. Evidence for H3 Receptor”, Journal of Pharmacology and Experimental Therapeutics, Vol. 276, No. 3, pp. 1009-1015 (1996); and Cheng et al., “Relationship Between the Inhibition Constant (K1) and the Concentration of Inhibitor which Causes 50% Inhibition (150) of an Enzymatic Reaction”, Biochemical Pharmacology, Vol. 22., pp. 3099-3108 (1973)).
The rat histamine-3 receptor was cloned and expressed in cells, and competition binding assays carried out, according to methods previously described (see Esbenshade et al., “Pharmacological Properties of ABT-239 [4-(2-{2-[(2R)-2-Methylpyrrolidinyl ]ethyl}-benzofuran-5-yl)benzonitrile]: I. Potent and Selective Histamine H3 Receptor Antagonist with Drug-Like Properties”, Journal of Pharmacology and Experimental Therapeutics, Vol. 313, pp. 165-175, (2005); Esbenshade et al., “Pharmacological and Behavioral Properties of A-349821, a Selective and Potent Human Histamine H3 Receptor Antagonist”, Biochemical Pharmacology, Vol 68, pp. 933-945 (2004); Krueger et al., “G Protein-Dependent Pharmacology of Histamine H3 Receptor Ligands: Evidence for Heterogeneous Active State Receptor Conformations”, Journal of Pharmacology and Experimental Therapeutics, Vol. 314, pp. 271-281 (2005)). Membranes were prepared from C6 or HEK293 cells, expressing the rat histamine-3 receptor, by homogenization on ice in TE buffer (50 mM Tris-HCl buffer, pH 7.4, containing 5 mM EDTA), 1 mM benzamidine, 2 μg/ml aprotinin, 1 μg/ml leupeptin, and 1 μg/ml pepstatin. The homogenate was centrifuged at 40,000 g for 20 minutes at 4° C. […]
Membrane preparations were incubated with [H3]-N-α-methylhistamine (0.5-1.0 nM) in the presence or absence of increasing concentrations of ligands of formula (I) and formula (II) for histamine-3 receptor competition binding. […] Bound radiolabel was determined by liquid scintillation counting. For all of the radioligand competition binding assays, IC50 values and Hill slopes were determined by Hill transformation of the data and pKi values were determined by the Cheng-Prusoff equation.

[1] abbreviates: compounds of formula (I), mean of 4 separate determinations.

T1 sequence (Q9QYN8 whole entry): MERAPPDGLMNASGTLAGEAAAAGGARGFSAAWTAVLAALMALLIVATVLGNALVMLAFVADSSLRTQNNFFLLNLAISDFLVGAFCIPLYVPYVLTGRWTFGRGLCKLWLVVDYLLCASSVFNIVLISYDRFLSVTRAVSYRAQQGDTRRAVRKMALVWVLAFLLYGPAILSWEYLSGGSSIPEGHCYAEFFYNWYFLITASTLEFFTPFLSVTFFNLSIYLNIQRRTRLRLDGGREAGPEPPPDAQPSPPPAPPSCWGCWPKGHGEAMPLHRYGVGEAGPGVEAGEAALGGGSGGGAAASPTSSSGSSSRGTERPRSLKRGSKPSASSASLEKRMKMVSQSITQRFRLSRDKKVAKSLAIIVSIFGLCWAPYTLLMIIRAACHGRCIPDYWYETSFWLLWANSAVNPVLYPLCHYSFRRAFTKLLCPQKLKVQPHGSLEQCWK

For `C[N@@+]1([O-])C[C@H]2CCN(c3ccc(-c4ccc(-n5ncccc5=O)cc4)cc3)[C@H]2C1` (single isomer, unassigned), under setting [1], the pKi – broadly, the Ki on a negative log10 scale, so that one unit is a factor of ten – is less than 5.30.

Turning to `CN1C[C@H]2CCN(c3ccc(-c4ccc(-n5ncccc5=O)nc4)cc3)[C@H]2C1` [2-(5-{4-[(3aR,6aR)-5-methylhexahydropyrrolo[3,4-b]pyrrol-1(2H)-yl]phenyl}pyridin-2-yl) pyridazin-3(2H)-one], the pKi (compounds of formula (II)) was 8.46.

Compound `C[N@+]1([O-])C[C@H]2CCN(c3ccc(-c4ccc(-n5ncccc5=O)cc4)cc3)[C@H]2C1` (single isomer, unassigned) gave a pKi under setting [1] of 5.65.

`CN1C[C@H]2CCN(c3ccc(-c4ccc(-n5ncccc5=O)cc4)cc3)[C@H]2C1` [2-{4′-[(3aR,6aR)-5-methylhexahydropyrrolo[3,4-b]pyrrol-1(2H)-yl]-1,1′-biphenyl-4-yl}pyridazin-3(2H)-one] had a pKi (compounds of formula (II)) of 8.09.
